“Also recorded” adds a separate entry of the source.
Assays:
[1] = test system: RMA-B7 cells pulsed with the homologous hTRT peptide; assay: peptide immunization of HLA-B7 Tg mice, 51Cr-release assay; type: in vivo; conditions: 100 micrograms peptide + HBV helper peptide in IFA, s.c.
Description: FIG. 1. […] HLA-B7 Tg mice were vaccinated with 100 micrograms of individual hTRT peptide together with 120 micrograms of HBV helper peptide in IFA. Ten days after immunization, spleen lymphocytes were restimulated in vitro with peptide and fresh, irradiated syngeneic APC. Restimulations were performed on a weekly basis. A standard 4 hour ^51Cr-release assay was performed on day 5 after in vitro restimulation, using RMA-B7 cells pulsed with the homologous hTRT peptide as targets and an E:T ratio of 25:1. Results are expressed as the mean specific lysis plus or minus standard deviation of responder mice only, whose number is indicated in each panel. Tests were run in duplicate.
In vivo immunization procedures. Peptide immunization. HLA B7 transgenic mice (28) were injected s.c. at the base of the tail with 100 micro-grams of hTRT peptides along with 120 micro-grams of I-A^b MHC Class II helper peptide 128-140 of the hepatitis B virus core protein in incomplete Freunds' adjuvant as described previously (12). Long-term CTL lines were maintained in culture by weekly restimulation with irradiated, peptide-pulsed syngeneic spleen cells in RPMI-1640 medium containing 10% heat inactivated fetal bovine serum, 2 mM glutamine, 5×10^−5 M 2-Mercaptoethanol, 50 micro-grams/ml streptomycin, and 50 micro-grams/ml penicillin (complete medium) and supplemented with 40 IU/ml of recombinant human IL-2.
(§1) CTL assays. Both murine and human CTL were detected by the ^51Cr release assay performed as previously described (14). Briefly, HLA-B7^+ antigen presenting cells (RMA-B7 or T2-B7 cells) were labeled for 1 hr with 100 micro-Ci of Na2^51CrO4 (Perkin Elmer). Washed cells (5×10^3 per well) were mixed in 96-well plates in 100 micro-liters/well with each peptide (at 10 micro-grams/ml or lower concentration) and 100 micro-liters of the CTL effector cells (at various E:T ratio) in RPMI medium. The plates were incubated for 4-5 hrs at 37° C. (5% CO2). The supernatants were harvested and counted on a Wallac 1470 Wizard Gamma counter. The percent lysis was calculated as 100 (cpmexp−cpmspont)/(cpmmax−cpmspont).
In order to assign immunogenicity to each of the peptides and correlate this property with the binding characteristics and the scores of the predictive algorithms, we immunized HLA-B7 Tg mice (28). Ten to eleven days after immunization mice were sacrificed, the spleen harvested and splenocytes put in culture with LPS/Dextran activated APC, and tested in a 4 hour ^51Cr-release assay. As shown, only five out of seven peptides yielded a meaningful, specific CTL response even after a third cycle of in vitro restimulation (FIG. 1). All immunogenic peptides induced a response from the first in vitro restimulation and this response increased upon subsequent rounds of antigen restimulation. As noted the lysis of peptide-pulsed RMA-B7 target cells increased at each round of in vitro restimulation. No lysis occurred on RMA-B7 cells not pulsed with peptide. Thus, the in vivo results together with the actual measure of the avidity of HLA-B7 binding avidity distinguished two groups of 9mer hTRT peptides.

[2] = test system: RMA-B7 target cells; assay: hTRT pDNA immunization of HLA-B7 Tg mice, 51Cr-release assay (in vivo processing); conditions: for % Responders / Responders/Total: hTRT pDNA immunized mice, responder when >10% specific lysis; for Responders/Total: E:T 60:1; for processing and CTL response after hTRT plasmid DNA immunization (in words): splenocytes restimulated in vitro with peptide
Description: DNA immunization. A DNA vector coding for the hTRT expressed under the control of CMV promoter was purified on plasmid Giga Kit columns under endotoxin-free conditions (Qiagen, Hilden, Germany). Anesthetized HLA-B*0702 transgenic mice were injected with 50 micro-liters of cardiotoxin into each tibialis anterior muscle 5-6 days prior DNA injection. For vaccination, 50 micro-liters of DNA (1 micro-gram/micro-liter in PBS) was injected into each pretreated muscle at day 0 and day 14. Ten days later, spleen cells of individual mice were separately restimulated in vitro with each relevant peptide (10 micrograms/ml) for 6 days. Effector CTL cells were tested in a standard 4 hr ^51Cr-release assay, using RMA-B7 cells (HLA-B*0702 transfected RMA cells) pulsed with test peptide or control peptide (CMV p65-derived R10TV restricted to HLA-B7). Specific % lysis as indicated below. In vivo immunization procedures were preformed in accordance with approved animal protocols at the University of California, San Diego or the Pasteur Institute, respectively.
as §1
Next, we established which among the various candidate peptides was processed and presented from full-length hTRT. To this end, we immunized HLA-B7 Tg mice with hTRT plasmid DNA. […] As shown in Table IV some but not all the peptides were processed and presented in vivo. […] Based on this analysis, it appears that only three of the original seven peptides were processed and presented efficiently in vivo. […] Thus, selection using PAProC algorithm was per se unable to predict hTRT peptides that would be cleaved and become immunogenic in vivo.
HLA-B7 Tg mice were immunized with a pDNA coding for full-length hTRT under the CMV promoter. ^51Cr-release assay was performed after 6 days of in vitro restimulation with respective peptide. Mice were considered responders when >10% specific lysis was observed. Tests were run in duplicate at an E:T ratio of 60:1, using RMA-B7 target cells.

SMILES | immunogenicity in vivo, CTL response after peptide immunization (in words) [1] | % Responders [2] | Responders/Total [2] | processing and CTL response after hTRT plasmid DNA immunization (in words) [2]
CC(C)C[C@H](NC(=O)[C@H](CO)NC(=O)[C@@H](NC(=O)[C@H](C)NC(=O)[C@H](CCC(=O)O)NC(=O)[C@H](CCC(=O)O)NC(=O)[C@H](C)NC(=O)[C@@H]1CCCN1C(=O)[C@@H](N)CCCNC(=N)N)[C@@H](C)O)C(=O)O [p277] | good immunogenicity in vivo | 57% | 4/7 | greater CTL responses than the other peptides
CC(C)C[C@H](NC(=O)[C@H](CO)NC(=O)[C@H](CO)NC(=O)[C@H](CC(C)C)NC(=O)[C@H](CC(C)C)NC(=O)[C@H](Cc1ccccc1)NC(=O)[C@H](CO)NC(=O)[C@@H]1CCCN1C(=O)[C@@H](N)CCCNC(=N)N)C(=O)O [p342] | good immunogenicity in vivo | 29% | 2/7 | marginally immunogenic if any
CC(C)C[C@H](NC(=O)[C@H](CC(C)C)NC(=O)[C@H](CCC(N)=O)NC(=O)[C@@H](NC(=O)[C@H](CC(C)C)NC(=O)[C@H](CCCNC(=N)N)NC(=O)[C@H](CCCNC(=N)N)NC(=O)[C@@H]1CCCN1C(=O)[C@@H](N)CC(=O)O)C(C)C)C(=O)O [p444] | not immunogenic in vivo; also recorded: poor immunogenicity; also recorded: poorly immunogenic | 0% | 0/4 | apparently not processed; also recorded: marginally immunogenic if any
CC(C)C[C@H](NC(=O)[C@H](CCCNC(=N)N)NC(=O)[C@H](CCCNC(=N)N)NC(=O)[C@H](CC(C)C)NC(=O)[C@H](CS)NC(=O)[C@H](C)NC(=O)[C@H](CCCNC(=N)N)NC(=O)[C@@H](NC(=O)[C@@H](N)Cc1ccccc1)C(C)C)C(=O)O [p464] | good immunogenicity in vivo | 17% | 2/6 | marginally immunogenic if any
CC(C)C[C@H](NC(=O)[C@H](C)NC(=O)[C@@H](NC(=O)[C@H](CC(C)C)NC(=O)[C@@H](NC(=O)[C@@H](NC(=O)CNC(=O)[C@@H]1CCCN1C(=O)[C@@H](N)CC(C)C)[C@@H](C)O)[C@@H](C)O)[C@@H](C)O)C(=O)O [p1107, LPGTTLTAL] | good immunogenicity in vivo | 50% | 3/6 | greater CTL responses than the other peptides
CC[C@H](C)[C@H](NC(=O)[C@@H](NC(=O)[C@H](CCCCN)NC(=O)[C@H](Cc1ccccc1)NC(=O)[C@H](CC(=O)O)NC(=O)[C@H](CO)NC(=O)[C@@H]1CCCN1C(=O)[C@@H](N)CC(C)C)[C@@H](C)O)C(=O)N[C@@H](CC(C)C)C(=O)O [p1123] | good immunogenicity in vivo | 50% | 3/6 | greater CTL responses than the other peptides

From patent US20090202499A1, “Human Telomerase Reverse Transcriptase Peptides” (priority 2006, published 2009)
